{"source": "PubChem BioAssay (NCI)", "assay_in_all_cases": "NCI-60 cell line screen, 48 h", "key": {"[1]": {"system": "786-0 renal"}, "[2]": {"system": "A498 renal"}, "[3]": {"system": "A549 NSCLC"}, "[4]": {"system": "ACHN renal"}, "[5]": {"system": "CAKI-1 renal"}, "[6]": {"system": "CCRF-CEM leukemia"}, "[7]": {"system": "COLO 205 colon"}, "[8]": {"system": "DLD-1 colon"}, "[9]": {"system": "DMS 114 small cell lung"}, "[10]": {"system": "DMS 273 small cell lung"}, "[11]": {"system": "EKVX NSCLC"}, "[12]": {"system": "HCC-2998 colon"}, "[13]": {"system": "HCT-116 colon"}, "[14]": {"system": "HCT-15 colon"}, "[15]": {"system": "HL-60(TB) leukemia"}, "[16]": {"system": "HOP-18 NSCLC"}, "[17]": {"system": "HOP-62 NSCLC"}, "[18]": {"system": "HOP-92 NSCLC"}, "[19]": {"system": "HT29 colon"}, "[20]": {"system": "IGROV1 ovarian"}, "[21]": {"system": "K-562 leukemia"}, "[22]": {"system": "KM12 colon"}, "[23]": {"system": "KM20L2 colon"}, "[24]": {"system": "LOX IMVI melanoma"}, "[25]": {"system": "LXFL 529 NSCLC"}, "[26]": {"system": "M14 melanoma"}, "[27]": {"system": "M19-MEL melanoma"}, "[28]": {"system": "MALME-3M melanoma"}, "[29]": {"system": "MOLT-4 leukemia"}, "[30]": {"system": "NCI-H226 lung"}, "[31]": {"system": "NCI-H23 lung"}, "[32]": {"system": "NCI-H460 lung"}, "[33]": {"system": "NCI-H522 lung"}, "[34]": {"system": "OVCAR-3 ovarian"}, "[35]": {"system": "OVCAR-4 ovarian"}, "[36]": {"system": "OVCAR-5 ovarian"}, "[37]": {"system": "OVCAR-8 ovarian"}, "[38]": {"system": "RPMI-8226 leukemia"}, "[39]": {"system": "SF-268 CNS"}, "[40]": {"system": "SF-295 CNS"}, "[41]": {"system": "SF-539 CNS"}, "[42]": {"system": "SK-MEL-2 melanoma"}, "[43]": {"system": "SK-MEL-28 melanoma"}, "[44]": {"system": "SK-MEL-5 melanoma"}, "[45]": {"system": "SK-OV-3 ovarian"}, "[46]": {"system": "SN12C renal"}, "[47]": {"system": "SNB-19 CNS"}, "[48]": {"system": "SNB-75 CNS"}, "[49]": {"system": "SNB-78 CNS"}, "[50]": {"system": "SR leukemia"}, "[51]": {"system": "SW-620 colon"}, "[52]": {"system": "TK-10 renal"}, "[53]": {"system": "U251 CNS"}, "[54]": {"system": "UACC-257 melanoma"}, "[55]": {"system": "UACC-62 melanoma"}, "[56]": {"system": "XF 498 CNS"}}, "note": "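Compound exposure: 48 hours, 5 concentrations, 96-well plates. TGI marks complete inhibition of growth.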", "data": [{"smiles": "Cc1cc(O)c(C=O)c(C)c1CCC1(C)C=Cc2cc(O)ccc2O1", "note": "(stereo unspecified)", "values": [{"measurement": "TGI", "setting": "[1]", "value": "> 100", "unit": "µM"}, {"measurement": "TGI", "setting": "[2]", "value": "> 100", "unit": "µM"}, {"measurement": "TGI", "setting": "[3]", "value": "> 100", "unit": "µM"}, {"measurement": "TGI", "setting": "[4]", "value": 38.6, "unit": "µM"}, {"measurement": "TGI", "setting": "[5]", "value": 37.1, "unit": "µM"}, {"measurement": "TGI", "setting": "[6]", "value": 48.8, "unit": "µM"}, {"measurement": "TGI", "setting": "[7]", "value": 30.4, "unit": "µM"}, {"measurement": "TGI", "setting": "[8]", "value": 38, "unit": "µM"}, {"measurement": "TGI", "setting": "[9]", "value": 44.7, "unit": "µM"}, {"measurement": "TGI", "setting": "[10]", "value": 46.4, "unit": "µM"}, {"measurement": "TGI", "setting": "[11]", "value": 94.4, "unit": "µM"}, {"measurement": "TGI", "setting": "[12]", "value": 79.2, "unit": "µM"}, {"measurement": "TGI", "setting": "[13]", "value": 30.9, "unit": "µM"}, {"measurement": "TGI", "setting": "[14]", "value": 55.1, "unit": "µM"}, {"measurement": "TGI", "setting": "[15]", "value": 60.3, "unit": "µM"}, {"measurement": "TGI", "setting": "[16]", "value": 60.5, "unit": "µM"}, {"measurement": "TGI", "setting": "[17]", "value": 43.2, "unit": "µM"}, {"measurement": "TGI", "setting": "[18]", "value": 57.9, "unit": "µM"}, {"measurement": "TGI", "setting": "[19]", "value": 82.2, "unit": "µM"}, {"measurement": "TGI", "setting": "[20]", "value": "> 100", "unit": "µM"}, {"measurement": "TGI", "setting": "[21]", "value": 67.9, "unit": "µM"}, {"measurement": "TGI", "setting": "[22]", "value": "> 100", "unit": "µM"}, {"measurement": "TGI", "setting": "[23]", "value": 57.4, "unit": "µM"}, {"measurement": "TGI", "setting": "[24]", "value": 40.3, "unit": "µM"}, {"measurement": "TGI", "setting": "[25]", "value": 29.8, "unit": "µM"}, {"measurement": "TGI", "setting": "[26]", "value": 35, "unit": "µM"}, {"measurement": "TGI", "setting": "[27]", "value": "> 100", "unit": "µM"}, {"measurement": "TGI", "setting": "[28]", "value": 71.4, "unit": "µM"}, {"measurement": "TGI", "setting": "[29]", "value": 50.5, "unit": "µM"}, {"measurement": "TGI", "setting": "[30]", "value": "> 100", "unit": "µM"}, {"measurement": "TGI", "setting": "[31]", "value": 43.9, "unit": "µM"}, {"measurement": "TGI", "setting": "[32]", "value": 52.5, "unit": "µM"}, {"measurement": "TGI", "setting": "[33]", "value": 28.2, "unit": "µM"}, {"measurement": "TGI", "setting": "[34]", "value": 56.3, "unit": "µM"}, {"measurement": "TGI", "setting": "[35]", "value": 67, "unit": "µM"}, {"measurement": "TGI", "setting": "[36]", "value": 79.1, "unit": "µM"}, {"measurement": "TGI", "setting": "[37]", "value": 31.4, "unit": "µM"}, {"measurement": "TGI", "setting": "[38]", "value": 56.1, "unit": "µM"}, {"measurement": "TGI", "setting": "[39]", "value": "> 100", "unit": "µM"}, {"measurement": "TGI", "setting": "[40]", "value": 67.6, "unit": "µM"}, {"measurement": "TGI", "setting": "[41]", "value": 38.9, "unit": "µM"}, {"measurement": "TGI", "setting": "[42]", "value": 53.9, "unit": "µM"}, {"measurement": "TGI", "setting": "[43]", "value": 54, "unit": "µM"}, {"measurement": "TGI", "setting": "[44]", "value": 71.2, "unit": "µM"}, {"measurement": "TGI", "setting": "[45]", "value": 85.6, "unit": "µM"}, {"measurement": "TGI", "setting": "[46]", "value": "> 100", "unit": "µM"}, {"measurement": "TGI", "setting": "[47]", "value": "> 100", "unit": "µM"}, {"measurement": "TGI", "setting": "[48]", "value": 94.1, "unit": "µM"}, {"measurement": "TGI", "setting": "[49]", "value": 86.4, "unit": "µM"}, {"measurement": "TGI", "setting": "[50]", "value": "> 100", "unit": "µM"}, {"measurement": "TGI", "setting": "[51]", "value": 45, "unit": "µM"}, {"measurement": "TGI", "setting": "[52]", "value": "> 100", "unit": "µM"}, {"measurement": "TGI", "setting": "[53]", "value": 48.8, "unit": "µM"}, {"measurement": "TGI", "setting": "[54]", "value": 53.7, "unit": "µM"}, {"measurement": "TGI", "setting": "[55]", "value": 43, "unit": "µM"}, {"measurement": "TGI", "setting": "[56]", "value": 52.7, "unit": "µM"}]}]}
